Test results as given in ChEMBL document CHEMBL5042497, “Design, synthesis, and biological evaluation of carbamate derivatives of N-salicyloyl tryptamine as multifunctional agents for the treatment of Alzheimer's disease” (Eur J Med Chem, 2022).
pIC50, pKi: −log10 of the molar value. The source made the active and inactive calls. No cut-off for these calls is given here.

Experiments:
Acetylcholinesterase [1] = target: T1, Acetylcholinesterase (Electrophorus electricus, UniProt O42275); assay: Inhibition of electric eel AChE using acetylthiocholine iodide as substrate assessed as inhibition constant at 0.78 to 12.5 uM preincubated for 10 mins followed by substrate addition and measured for 15 mins by Lineweaver-Burk plot analysis
T1 sequence (O42275 whole entry): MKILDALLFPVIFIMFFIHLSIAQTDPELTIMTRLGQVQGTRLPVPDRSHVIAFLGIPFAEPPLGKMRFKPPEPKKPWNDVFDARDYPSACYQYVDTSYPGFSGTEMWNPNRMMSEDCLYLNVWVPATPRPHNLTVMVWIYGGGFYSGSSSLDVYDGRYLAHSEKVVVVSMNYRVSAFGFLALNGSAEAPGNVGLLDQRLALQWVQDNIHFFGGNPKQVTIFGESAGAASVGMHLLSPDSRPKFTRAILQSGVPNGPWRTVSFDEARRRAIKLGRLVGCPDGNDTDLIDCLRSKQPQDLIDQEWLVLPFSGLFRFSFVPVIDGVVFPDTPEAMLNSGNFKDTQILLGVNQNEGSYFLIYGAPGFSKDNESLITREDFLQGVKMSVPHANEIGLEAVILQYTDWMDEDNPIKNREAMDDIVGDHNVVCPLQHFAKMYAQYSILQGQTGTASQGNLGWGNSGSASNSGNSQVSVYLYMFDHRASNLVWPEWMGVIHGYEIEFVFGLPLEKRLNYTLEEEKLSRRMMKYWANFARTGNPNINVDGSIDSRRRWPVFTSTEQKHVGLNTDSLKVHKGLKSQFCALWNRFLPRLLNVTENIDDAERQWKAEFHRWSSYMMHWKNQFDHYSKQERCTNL

Cholinesterase [2] = target: T2, Cholinesterase (Equus caballus, UniProt P81908); assay: Inhibition of equine serum BChE using butyrylthiocholine iodide as substrate assessed as inhibition constant at 0.78 to 12.5 uM preincubated for 10 mins followed by substrate addition and measured after 15 mins by Lineweaver-Burk plot analysis
T2 sequence (P81908 whole entry): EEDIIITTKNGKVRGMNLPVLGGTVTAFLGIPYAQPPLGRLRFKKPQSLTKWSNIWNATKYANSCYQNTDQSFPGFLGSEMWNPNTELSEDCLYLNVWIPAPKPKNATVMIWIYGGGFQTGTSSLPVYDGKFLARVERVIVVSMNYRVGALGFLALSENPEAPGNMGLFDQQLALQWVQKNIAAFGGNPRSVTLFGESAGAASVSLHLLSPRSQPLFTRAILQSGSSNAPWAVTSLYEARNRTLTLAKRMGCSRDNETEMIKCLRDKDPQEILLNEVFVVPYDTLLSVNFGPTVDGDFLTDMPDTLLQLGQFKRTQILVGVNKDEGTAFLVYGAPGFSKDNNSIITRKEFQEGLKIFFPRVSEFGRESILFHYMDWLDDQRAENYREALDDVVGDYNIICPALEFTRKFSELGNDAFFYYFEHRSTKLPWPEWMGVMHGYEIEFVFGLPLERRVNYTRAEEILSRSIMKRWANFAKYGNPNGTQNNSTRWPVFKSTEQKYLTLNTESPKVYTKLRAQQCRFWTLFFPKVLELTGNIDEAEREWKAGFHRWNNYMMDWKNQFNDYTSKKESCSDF

Cholinesterase [3] = target: T2, Cholinesterase; assay: Inhibition of equine serum BChE using butyrylthiocholine iodide as substrate preincubated for 10 mins followed by substrate addition and measured after 15 mins by Ellman's method
Acetylcholinesterase [4] = target: T1, Acetylcholinesterase; assay: Inhibition of electric eel AChE using acetylthiocholine iodide as substrate preincubated for 10 mins followed by substrate addition and measured for 15 mins by Ellman's method
BV-2 [5] = assay: cells; format: functional, cell-based; conditions: Mus musculus, BV-2, 24 h
Description: Cytotoxicity against mouse BV-2 cells assessed as reduction in cell viability measured after 24 hrs by MTT assay

HT-22 = assay: cells; format: functional, cell-based; conditions: Mus musculus, HT-22, 24 h
Description: Cytotoxicity against mouse HT-22 cells assessed as reduction in cell viability measured after 24 hrs by MTT assay

[6] = target: Amyloid-beta precursor protein (Homo sapiens) (UniProt P05067); assay: Inhibition of amyloid beta (1 to 42 ) (unknown origin) aggregation at 20 umol/L incubated for 24 hrs by thioflavin-T fluorescence method relative to control; conditions: dose 20.0 µmol/L
Chain of Amyloid-beta precursor protein (Homo sapiens) (P05067 whole entry): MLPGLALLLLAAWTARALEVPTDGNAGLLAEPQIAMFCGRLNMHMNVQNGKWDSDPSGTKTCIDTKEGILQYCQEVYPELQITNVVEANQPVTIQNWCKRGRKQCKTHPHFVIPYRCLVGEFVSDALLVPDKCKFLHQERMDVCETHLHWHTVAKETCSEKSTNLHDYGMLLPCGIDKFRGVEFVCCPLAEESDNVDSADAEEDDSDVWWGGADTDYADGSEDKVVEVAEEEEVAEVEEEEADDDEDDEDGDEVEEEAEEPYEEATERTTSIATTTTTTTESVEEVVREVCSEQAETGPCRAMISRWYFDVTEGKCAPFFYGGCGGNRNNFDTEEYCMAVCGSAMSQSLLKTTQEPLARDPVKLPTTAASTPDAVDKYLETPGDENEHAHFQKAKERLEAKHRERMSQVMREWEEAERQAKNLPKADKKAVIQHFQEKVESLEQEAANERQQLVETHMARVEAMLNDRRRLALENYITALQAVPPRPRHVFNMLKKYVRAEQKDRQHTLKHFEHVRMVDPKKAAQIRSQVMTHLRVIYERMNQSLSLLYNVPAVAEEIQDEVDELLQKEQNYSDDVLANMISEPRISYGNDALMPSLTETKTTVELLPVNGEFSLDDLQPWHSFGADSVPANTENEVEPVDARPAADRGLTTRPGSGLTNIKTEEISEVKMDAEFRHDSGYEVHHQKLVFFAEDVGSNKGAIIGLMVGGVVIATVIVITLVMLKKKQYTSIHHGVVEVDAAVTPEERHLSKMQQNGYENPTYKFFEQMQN

BV-2 [7] = assay: Anti-neuroinflammation in mouse BV-2 cells assessed as increase in LPS-induced IL-4 production measured after 24 hrs by ELISA; format: functional, cell-based; conditions: dose 6.25-25 µmol/L
BV-2 [8] = assay: Anti-neuroinflammation in mouse BV-2 cells assessed as decrease in LPS-induced IL-6 production at 6.25 to 25 umol/L measured after 24 hrs by ELISA; format: functional, cell-based; conditions: dose 6.25-25 µmol/L
BV-2 [9] = assay: Anti-neuroinflammation in mouse BV-2 cells assessed as inhibition of LPS-induced NO production at 100 to 3.125 umol/L measured after 24 hrs by Griess method; format: functional, cell-based; conditions: dose 100-3.125 µmol/L
BV-2 [10] = assay: Effect of compound on LPS- induced iNOS production in mouse BV-2 cells incubated for 24 hrs by western blot analysis; format: functional, cell-based; conditions: dose 6.25-25 µM
BV-2 [11] = assay: Effect of compound on LPS- induced ROS production in mouse BV-2 cells at 6.25 to 25 uM by microscopic analysis; format: functional, cell-based; conditions: dose 6.25-25 µM
[12] = Acute toxicity in Sprague-Dawley rat assessed as behavioral abnormality at 2000 mg/kg, IG administered as single dose measured after 14 days; format: organism-based; conditions: in vivo, po, 336 h, time 14 day
[13] = Acute toxicity in Sprague-Dawley rat assessed as abnormality in diet at 2000 mg/kg, IG administered as single dose measured after 14 days; format: organism-based; conditions: in vivo, po, 336 h, time 14 day
[14] = Acute toxicity in Sprague-Dawley rat assessed as abnormality in body weight at 2000 mg/kg, IG administered as single dose measured after 14 days; format: organism-based; conditions: in vivo, po, 336 h, time 14 day
[15] = Acute toxicity in Sprague-Dawley rat assessed as histological changes in heart at 2000 mg/kg, IG administered as single dose measured after 14 days by H and E staining based analysis; format: organism-based; conditions: in vivo, po, 336 h, time 14 day
[16] = Acute toxicity in Sprague-Dawley rat assessed as histological changes in liver at 2000 mg/kg, IG administered as single dose measured after 14 days by H and E staining based analysis; format: organism-based; conditions: in vivo, po, 336 h, time 14 day
[17] = Acute toxicity in Sprague-Dawley rat assessed as histological changes in spleen at 2000 mg/kg, IG administered as single dose measured after 14 days by H and E staining based analysis; format: organism-based; conditions: in vivo, po, 336 h, time 14 day
[18] = Acute toxicity in Sprague-Dawley rat assessed as histological changes in brain at 2000 mg/kg, IG administered as single dose measured after 14 days by H and E staining based analysis; format: organism-based; conditions: in vivo, po, 336 h, time 14 day
Mus musculus [19] = assay: Anti-alzheimer activity against scopolamine-induced cognitive dysfunction mouse model assessed as decrease in swimming distance at 100 mg/kg, po dosed for 10 days and measured after 30 mins on day 11 by Morris water maze test; format: functional, organism-based; conditions: time 10.0 day
[20] = Half life in Sprague-Dawley rat at 100 mg/kg, po measured upto 24 hrs by LC-MS analysis; format: ADME, organism-based; conditions: in vivo
[21] = Tmax in Sprague-Dawley rat at 100 mg/kg, po measured upto 24 hrs by LC-MS analysis; format: ADME, organism-based; conditions: in vivo
[22] = Cmax in Sprague-Dawley rat at 100 mg/kg, po measured upto 24 hrs by LC-MS analysis; format: ADME, organism-based; design: route oral, dose 100 mg/kg, time <=24; conditions: in vivo
[23] = AUC (0 to t) in Sprague-Dawley rat at 100 mg/kg, po measured upto 24 hrs by LC-MS analysis; format: ADME, organism-based; design: route oral, dose 100 mg/kg, time <=24; conditions: in vivo
[24] = MRT(0 to t) in Sprague-Dawley rat at 100 mg/kg, po measured upto 24 hrs by LC-MS analysis; format: ADME, organism-based; conditions: in vivo
Mus musculus [25] = assay: Anti-alzheimer activity against scopolamine-induced cognitive dysfunction mouse model assessed as increase in movement distance in central and peripheral area at 50 to 100 mg/kg,po dosed for 10 days and measured after 30 mins on day 11 by open field test; format: functional, organism-based; conditions: dose 50-100 mg/kg, time 10.0 day
Mus musculus [26] = assay: Anti-alzheimer activity against scopolamine-induced cognitive dysfunction mouse model assessed as increase in rate of time spend in central and peripheral area at 50 to 100 mg/kg,po dosed for 10 days and measured after 30 mins on day 11 by open field test; format: functional, organism-based; conditions: dose 50-100 mg/kg, time 10.0 day
Mus musculus [27] = assay: Anti-alzheimer activity against scopolamine-induced cognitive dysfunction mouse model assessed as […] of AChE activity in hippocampus at 50 to 100 mg/kg, po dosed for 10 days by colorimetric analysis; format: functional, organism-based; conditions: dose 50-100 mg/kg, time 10.0 day
Mus musculus [28] = assay: Anti-alzheimer activity against scopolamine-induced cognitive dysfunction mouse model assessed as change in neuron damage in hippocampal CA1 region at 50 to 100 mg/kg, po measured after 10 days by Nissl staining based assay; format: functional, organism-based; conditions: Hippocampus, dose 50-100 mg/kg, time 10.0 day
Mus musculus [29] = assay: Anti-alzheimer activity against scopolamine-induced cognitive dysfunction mouse model assessed as change in neuron damage in hippocampal CA3 region at 50 to 100 mg/kg, po measured after 10 days by Nissl staining based assay; format: functional, organism-based; conditions: Hippocampus, dose 50-100 mg/kg, time 10.0 day
BV-2 [30] = assay: Anti-neuroinflammation in mouse BV-2 cells assessed as decrease in LPS-induced TNF-alpha production at 6.25 to 25 umol/L measured after 24 hrs by ELISA; format: functional, cell-based; conditions: dose 6.25-25 µmol/L
BV-2 [31] = assay: Anti-neuroinflammation in mouse BV-2 cells assessed as decrease in LPS-induced iNOS activity at 6.25 to 25 umol/L by fluorescence based assay; format: functional, cell-based; conditions: dose 6.25-25 µmol/L
[32] = Acute toxicity in Sprague-Dawley rat assessed as abnormality in living off at 2000 mg/kg, IG administered as single dose measured after 14 days; format: organism-based; conditions: in vivo, po, 336 h, time 14 day
[33] = Acute toxicity in Sprague-Dawley rat assessed as lethal dose administered intragastrically as single dose measured after 14 days; conditions: in vivo, po, time 14 day
in vivo = conditions: Sprague-Dawley, rat, brain/plasma, 100 mg/kg
Description: Ratio of drug concentration in brain to plasma in Sprague-Dawley rat at 100 mg/kg measured at 10 mins by LC-MS analysis

`CON(C)C(=O)Oc1ccccc1C(=O)NCCc1c[nH]c2ccccc12` gave a pKi (Acetylcholinesterase [1]) of 5.80, a pKi (Cholinesterase [2]) of 6.05 and a pIC50 (Cholinesterase [3]) of 5.74. The pIC50 (Acetylcholinesterase [4]) was 5.49, the pIC50 (BV-2 [5]) was 3.70 and the pIC50 (HT-22) was 3.86. For the same compound, the inhibition [6] was 40.3%, the Activity (BV-2 [7]) was “Dose-Dependent Effect” and the Activity (BV-2 [8]) was “Active”. For the same compound, the Activity (BV-2 [9]) was “Active”, the Activity (BV-2 [10]) was “Dose-Dependent Effect” and the Activity (BV-2 [11]) was “Active”. For the same compound, the Activity [12] was “Non-Toxic”, the Activity [13] was “Non-Toxic” and the Activity [14] was “Non-Toxic”. For the same compound, the Activity [15] was “Non-Toxic”, the Activity [16] was “Non-Toxic” and the Activity [17] was “Non-Toxic”. For the same compound, the Activity [18] was “Non-Toxic”, the Activity (Mus musculus [19]) was “Active” and the half-life [20] was 5.34 h. For the same compound, the Tmax [21] was 4.8 min, the Cmax [22] was 3030 ng/mL and the AUC(0-t) at 24 h [23] was 3900 ng·h/mL. The MRT last at 24 h [24] was 4.89 h, the Activity (Mus musculus [25]) was “Dose-Dependent Effect” and the Activity (Mus musculus [26]) was “Dose-Dependent Effect”. For the same compound, the Activity (Mus musculus [27]) was “Active”, the Activity (Mus musculus [28]) was “Active” and the Activity (Mus musculus [29]) was “Active”. For the same compound, the Activity (BV-2 [30]) was “Active”, the Activity (BV-2 [31]) was “Active” and the Activity [32] was “Non-Toxic”. For the same compound, the LD50 at 336 h [33] was over 2000 mg/kg and the Kp at 10 min (in vivo) was 15.7.
